Legend:
[1] = Measurement of unsaturated bond formation (lyase activity) using absorbance at 232 nm; format: biochemical; settings: 0.2% heparin, measured every 10 minutes for 1 hour, FIG. 1
Description: Measurement of Unsaturated Bond Formation Using Absorbance at 232 nm:
Reactions were prepared in 1 ml quartz cuvettes. For heparinase I [Lavobacterium heparinum, Sigma, Cat. No. H2519], 3 units enzyme were added to a reaction mixture A (18 mM Tris buffer pH 7.5, 45 mM NaCl, 4 mM CaCl2, 0.01% BSA) containing 0.2% heparin. For recombinant heparanase (expressed in insect cells, see, U.S. patent application Ser. Nos. 08/922,170; 09/071,618; 09/109,386; 09/258,892 and 09/260,038 and in PCT/US98/17954 and PCT/US98/09256, all of which are incorporated herein by reference), 5 mg enzyme were added to a reaction mixture B (20 mM phosphate citrate buffer pH 5.4, 1 mM CaCl2, 1 mM NaCl and 0.01% BSA) containing 0.2% heparin. Absorbance at 232 nm was measured in a Cary 100 (Varian) spectrophotometer every 10 minutes for a period of 1 hour.
Partially purified recombinant human heparanase expressed in insect cells was examined to determine whether it is a lyase or hydrolase. A bacterial heparinase I which is a lyase was used as a control. The formation of an unsaturated bond by lyase activity as measured by 232 nm absorbance was performed as described under experimental procedures above.

[2] = system: B16 melanoma; settings: lung metastases induced by B16 melanoma, experimental animals; cited from earlier work
[3] = system: Lewis lung carcinoma; settings: lung metastases induced by Lewis lung carcinoma, experimental animals; cited from earlier work
[4] = system: mammary adenocarcinoma cells; settings: lung metastases induced by mammary adenocarcinoma cells, experimental animals; cited from earlier work

In the case of heparinase I, the “lyase activity: 232 nm absorbance (formation of Δ4,5 unsaturated bond of heparin)” value [1] is reported as “linear increase”.
For laminarin sulfate, the “reduction of the incidence of lung metastases” value (shortened to “reduction”) [2] is given as > 90%, the “reduction” value [3] is given as > 90% and the “reduction” value [4] is given as > 90%.

Reference: patent publication US20020009782A1, “Heparin and heparan sulfate derived oligosaccharides and a method for their manufacture” (priority 1999, published 2002)
